Source: ChEMBL document CHEMBL5463723, “Data for DCP probe BIBO3304” (2023)

What was measured:
[1] = target: Alpha-1A adrenergic receptor (Homo sapiens) (UniProt P35348); test: Agonist activity in the Eurofins Cerep SafetyScreen44 (BI) against ALPHA1AH_ANTAG by Scintillation counting (Cerep_2338); settings: Compound concentration 10.0 uM
[2] = target: Muscarinic acetylcholine receptor M1 (Homo sapiens) (UniProt P11229); test: M1 Eurofins-Cerep binding assay; design: ligand concentration 2 nM; settings: Compound concentration 10.0 uM
[3] = target: Glutamate receptor ionotropic, NMDA 2A (Rattus norvegicus) (UniProt Q00959); test: Activity against NMDAPHSI/R in the Eurofins Panlabs screen (BI) by Radioactive Assay; settings: Compound concentration 10.0 uM
[4] = target: D(2) dopamine receptor (Rattus norvegicus) (UniProt P61169); test: Activity against D2/RAC/R in the Eurofins Panlabs screen (BI); settings: Compound concentration 10.0 uM
[5] = target: D(1B) dopamine receptor (Homo sapiens) (UniProt P21918); test: Activity against D5/HU in the Eurofins Panlabs screen (BI) by Radioactive Assay; settings: Compound concentration 10.0 uM
[6] = target: Estrogen receptor (Bos taurus) (UniProt P49884); test: Activity against ESTROGEN/BO in the Eurofins Panlabs screen (BI) by Radioactive Assay; settings: Compound concentration 10.0 uM
[7] = target: Somatostatin receptor type 5 (Mus musculus) (UniProt O08858); test: Activity against SOMATOS/MO in the Eurofins Panlabs screen (BI) by Radioactive Assay; settings: Compound concentration 10.0 uM
[8] = target: Adenosine receptor A2a (Homo sapiens) (UniProt P29274); test: A2A Eurofins-Cerep binding assay; design: ligand concentration 6 nM; settings: Compound concentration 10.0 uM
[9] = target: Galanin receptor type 1 (Rattus norvegicus) (UniProt Q62805); test: Activity against GALANIN/R in the Eurofins Panlabs screen (BI) by Radioactive Assay; settings: Compound concentration 10.0 uM
[10] = target: Beta-2 adrenergic receptor (Rattus norvegicus) (UniProt P10608); test: Activity against BETA2/R in the Eurofins Panlabs screen (BI) by Radioactive Assay; settings: Compound concentration 10.0 uM
[11] = target: Neuropeptide Y receptor type 2 (Rattus norvegicus, UniProt Q9ERC0); test: Radioligand binding assay (NPY2R, rat hippocampus); type: tissue-based
[12] = target: Bombesin receptor subtype-3 (Rattus norvegicus) (UniProt Q8K418); test: Activity against BOMBESIN/R in the Eurofins Panlabs screen (BI) by Radioactive Assay; settings: Compound concentration 10.0 uM
[13] = target: Glutamate NMDA receptor (Rattus norvegicus) (UniProt P35439+Q00959+Q00960+Q00961+Q62645+Q8VHN2+Q9R1M7); test: Agonist activity in the Eurofins Panlabs screen (BI) against NMDAAGSI/R by Radioactive Assay; type: protein-complex assay; settings: Compound concentration 10.0 uM
[14] = target: 5-hydroxytryptamine receptor 2A (Homo sapiens) (UniProt P28223); test: Agonist activity in the Eurofins Cerep SafetyScreen44 (BI) against 5HT2AH_AGON by Scintillation counting (Cerep_471); settings: Compound concentration 10.0 uM
[15] = target: Kappa-type opioid receptor (Homo sapiens) (UniProt P41145); test: kappa (KOP) Eurofins-Cerep binding assay; settings: Compound concentration 10.0 uM
[16] = target: Cholecystokinin receptor type A (Homo sapiens) (UniProt P32238); test: CCK1 (CCKA) Eurofins-Cerep binding assay; design: ligand concentration 0.08 nM; settings: Compound concentration 10.0 uM
Rattus norvegicus = organism: Rattus norvegicus; test: Activity against BETA/R in the Eurofins Panlabs screen (BI) by Radioactive Assay; settings: Compound concentration 10.0 uM
[17] = target: Beta-2 adrenergic receptor (Homo sapiens) (UniProt P07550); test: beta 2 Eurofins-Cerep binding assay; settings: Compound concentration 10.0 uM
[18] = target: LTB4 receptor (Cavia porcellus) (UniProt Q9WTK1); test: Activity against LTB4GP in the Eurofins Panlabs screen (BI) by Radioactive Assay; settings: Compound concentration 10.0 uM
[19] = target: Muscarinic acetylcholine receptor M2 (Rattus norvegicus) (UniProt P10980); test: Activity against M2/R in the Eurofins Panlabs screen (BI) by Radioactive Assay; settings: Compound concentration 10.0 uM
[20] = target: Neuropeptide Y receptor type 2 (Oryctolagus cuniculus) (UniProt G1TSD5); test: Activity against Y2/RB in the Eurofins Panlabs screen (BI) by Radioactive Assay; settings: Compound concentration 10.0 uM
[21] = target: B2 bradykinin receptor (Cavia porcellus) (UniProt O70526); test: Activity against B2/GP in the Eurofins Panlabs screen (BI) by Radioactive Assay; settings: Compound concentration 10.0 uM
[22] = target: D(2) dopamine receptor (Homo sapiens) (UniProt P14416); test: Activity against D2HSPIP in the Eurofins Panlabs screen (BI); settings: Compound concentration 10.0 uM
[23] = target: Muscarinic acetylcholine receptor M2 (Homo sapiens) (UniProt P08172); test: M2 Eurofins-Cerep binding assay; design: ligand concentration 2 nM; settings: Compound concentration 10.0 uM
[24] = target: Androgen receptor (Rattus norvegicus) (UniProt P15207); test: Activity against TESTOST/R in the Eurofins Panlabs screen (BI) by Radioactive Assay; settings: Compound concentration 10.0 uM
[25] = target: Endothelin-1 receptor (Homo sapiens) (UniProt P25101); test: ETA Eurofins-Cerep binding assay; design: ligand concentration 0.03 nM; settings: Compound concentration 10.0 uM
[26] = target: Voltage-dependent N-type calcium channel subunit alpha-1B (Rattus norvegicus) (UniProt Q02294); test: Activity against CA+/N/RA in the Eurofins Panlabs screen (BI) by Radioactive Assay; settings: Compound concentration 10.0 uM
[27] = target: Neuropeptide Y receptor type 5 (Homo sapiens, UniProt Q15761); test: Radioligand binding assay (human NPY5R, HEK293); type: cell-based
[28] = target: Glutamate receptor ionotropic, kainate 1 (Rattus norvegicus) (UniProt P22756); test: Activity against KAINATE/R in the Eurofins Panlabs screen (BI) by Radioactive Assay; settings: Compound concentration 10.0 uM
[29] = target: Adenosine receptor A2a (Rattus norvegicus) (UniProt P30543); test: Activity against A2A/R in the Eurofins Panlabs screen (BI) by Radioactive Assay; settings: Compound concentration 10.0 uM
[30] = target: Alpha-1D adrenergic receptor (Rattus norvegicus) (UniProt P23944); test: Activity against ALPHA1/R in the Eurofins Panlabs screen (BI) by Others; settings: Compound concentration 10.0 uM
[31] = target: Sodium-dependent noradrenaline transporter (Homo sapiens) (UniProt P23975); test: norepinephrine transporter Eurofins-Cerep binding assay; design: ligand concentration 1 nM; settings: Compound concentration 10.0 uM
[32] = target: Alpha-1A adrenergic receptor (Homo sapiens) (UniProt P35348); test: Activity against ALPHA1A/R in the Eurofins Panlabs screen (BI) by Others; settings: Rattus norvegicus; Compound concentration 10.0 uM
[33] = target: Gamma-aminobutyric acid receptor subunit alpha-1 (Rattus norvegicus) (UniProt P62813); test: Activity against GABAACENTR in the Eurofins Panlabs screen (BI) by Radioactive Assay; settings: Compound concentration 10.0 uM
[34] = target: Serotonin 2 (5-HT2) receptor (Rattus norvegicus) (UniProt P30994+P08909+P14842); test: Activity against 5HT2/R in the Eurofins Panlabs screen (BI) by Radioactive Assay; type: protein assay; settings: Compound concentration 10.0 uM
[35] = target: Alpha-1B adrenergic receptor (Homo sapiens) (UniProt P35368); test: Activity against ALPHA1B/R in the Eurofins Panlabs screen (BI) by Radioactive Assay; settings: Rattus norvegicus; Compound concentration 10.0 uM
[36] = target: Histamine H1 receptor (Homo sapiens) (UniProt P35367); test: H1 Eurofins-Cerep binding assay; design: ligand concentration 1 nM; settings: Compound concentration 10.0 uM
[37] = target: Substance-P receptor (Cavia porcellus) (UniProt P30547); test: Activity against NK1/GP in the Eurofins Panlabs screen (BI) by Radioactive Assay; settings: Compound concentration 10.0 uM
[38] = target: Beta-1 adrenergic receptor (Oryctolagus cuniculus) (UniProt A0A4Y6F0G0); test: Activity against BETA1/RB in the Eurofins Panlabs screen (BI) by Radioactive Assay; settings: Compound concentration 10.0 uM
[39] = target: Progesterone receptor (Bos taurus) (UniProt Q690N0); test: Activity against PROGEST/BO in the Eurofins Panlabs screen (BI) by Radioactive Assay; settings: Compound concentration 10.0 uM
[40] = target: Prostaglandin G/H synthase 1 (Homo sapiens) (UniProt P23219); test: Inhibitor of COX-1 in the Eurofins Cerep SafetyScreen44 (BI) by Fluorimetry (Cerep_4173); settings: Compound concentration 10.0 uM

Sequence of Alpha-1A adrenergic receptor (Homo sapiens) (P35348 whole entry): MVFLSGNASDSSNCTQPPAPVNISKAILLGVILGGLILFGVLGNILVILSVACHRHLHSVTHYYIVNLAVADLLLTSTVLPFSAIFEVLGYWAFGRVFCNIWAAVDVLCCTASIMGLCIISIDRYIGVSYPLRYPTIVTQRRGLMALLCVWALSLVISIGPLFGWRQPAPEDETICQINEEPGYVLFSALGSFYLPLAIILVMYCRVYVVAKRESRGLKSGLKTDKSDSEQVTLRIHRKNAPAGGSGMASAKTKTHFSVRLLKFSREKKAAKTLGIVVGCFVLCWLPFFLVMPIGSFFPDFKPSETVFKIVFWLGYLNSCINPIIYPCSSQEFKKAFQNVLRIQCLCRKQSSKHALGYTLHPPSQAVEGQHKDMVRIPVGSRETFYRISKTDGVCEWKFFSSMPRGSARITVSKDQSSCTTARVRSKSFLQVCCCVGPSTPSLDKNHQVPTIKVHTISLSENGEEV
Sequence of Muscarinic acetylcholine receptor M2 (Homo sapiens) (P08172 whole entry): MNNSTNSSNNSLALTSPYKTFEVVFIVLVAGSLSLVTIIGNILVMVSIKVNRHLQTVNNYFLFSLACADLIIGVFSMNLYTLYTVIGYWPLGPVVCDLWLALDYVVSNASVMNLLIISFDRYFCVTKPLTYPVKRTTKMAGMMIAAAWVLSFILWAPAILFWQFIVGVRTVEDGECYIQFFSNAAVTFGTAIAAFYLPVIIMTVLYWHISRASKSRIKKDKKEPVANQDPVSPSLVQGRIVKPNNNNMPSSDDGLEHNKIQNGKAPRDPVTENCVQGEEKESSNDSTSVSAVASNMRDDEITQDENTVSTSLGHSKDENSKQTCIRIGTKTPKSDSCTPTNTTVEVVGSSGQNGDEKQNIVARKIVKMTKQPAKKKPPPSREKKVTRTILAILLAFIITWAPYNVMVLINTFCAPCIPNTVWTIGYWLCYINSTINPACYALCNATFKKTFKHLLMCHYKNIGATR
Sequence of Voltage-dependent N-type calcium channel subunit alpha-1B (Rattus norvegicus) (Q02294 whole entry, looked up): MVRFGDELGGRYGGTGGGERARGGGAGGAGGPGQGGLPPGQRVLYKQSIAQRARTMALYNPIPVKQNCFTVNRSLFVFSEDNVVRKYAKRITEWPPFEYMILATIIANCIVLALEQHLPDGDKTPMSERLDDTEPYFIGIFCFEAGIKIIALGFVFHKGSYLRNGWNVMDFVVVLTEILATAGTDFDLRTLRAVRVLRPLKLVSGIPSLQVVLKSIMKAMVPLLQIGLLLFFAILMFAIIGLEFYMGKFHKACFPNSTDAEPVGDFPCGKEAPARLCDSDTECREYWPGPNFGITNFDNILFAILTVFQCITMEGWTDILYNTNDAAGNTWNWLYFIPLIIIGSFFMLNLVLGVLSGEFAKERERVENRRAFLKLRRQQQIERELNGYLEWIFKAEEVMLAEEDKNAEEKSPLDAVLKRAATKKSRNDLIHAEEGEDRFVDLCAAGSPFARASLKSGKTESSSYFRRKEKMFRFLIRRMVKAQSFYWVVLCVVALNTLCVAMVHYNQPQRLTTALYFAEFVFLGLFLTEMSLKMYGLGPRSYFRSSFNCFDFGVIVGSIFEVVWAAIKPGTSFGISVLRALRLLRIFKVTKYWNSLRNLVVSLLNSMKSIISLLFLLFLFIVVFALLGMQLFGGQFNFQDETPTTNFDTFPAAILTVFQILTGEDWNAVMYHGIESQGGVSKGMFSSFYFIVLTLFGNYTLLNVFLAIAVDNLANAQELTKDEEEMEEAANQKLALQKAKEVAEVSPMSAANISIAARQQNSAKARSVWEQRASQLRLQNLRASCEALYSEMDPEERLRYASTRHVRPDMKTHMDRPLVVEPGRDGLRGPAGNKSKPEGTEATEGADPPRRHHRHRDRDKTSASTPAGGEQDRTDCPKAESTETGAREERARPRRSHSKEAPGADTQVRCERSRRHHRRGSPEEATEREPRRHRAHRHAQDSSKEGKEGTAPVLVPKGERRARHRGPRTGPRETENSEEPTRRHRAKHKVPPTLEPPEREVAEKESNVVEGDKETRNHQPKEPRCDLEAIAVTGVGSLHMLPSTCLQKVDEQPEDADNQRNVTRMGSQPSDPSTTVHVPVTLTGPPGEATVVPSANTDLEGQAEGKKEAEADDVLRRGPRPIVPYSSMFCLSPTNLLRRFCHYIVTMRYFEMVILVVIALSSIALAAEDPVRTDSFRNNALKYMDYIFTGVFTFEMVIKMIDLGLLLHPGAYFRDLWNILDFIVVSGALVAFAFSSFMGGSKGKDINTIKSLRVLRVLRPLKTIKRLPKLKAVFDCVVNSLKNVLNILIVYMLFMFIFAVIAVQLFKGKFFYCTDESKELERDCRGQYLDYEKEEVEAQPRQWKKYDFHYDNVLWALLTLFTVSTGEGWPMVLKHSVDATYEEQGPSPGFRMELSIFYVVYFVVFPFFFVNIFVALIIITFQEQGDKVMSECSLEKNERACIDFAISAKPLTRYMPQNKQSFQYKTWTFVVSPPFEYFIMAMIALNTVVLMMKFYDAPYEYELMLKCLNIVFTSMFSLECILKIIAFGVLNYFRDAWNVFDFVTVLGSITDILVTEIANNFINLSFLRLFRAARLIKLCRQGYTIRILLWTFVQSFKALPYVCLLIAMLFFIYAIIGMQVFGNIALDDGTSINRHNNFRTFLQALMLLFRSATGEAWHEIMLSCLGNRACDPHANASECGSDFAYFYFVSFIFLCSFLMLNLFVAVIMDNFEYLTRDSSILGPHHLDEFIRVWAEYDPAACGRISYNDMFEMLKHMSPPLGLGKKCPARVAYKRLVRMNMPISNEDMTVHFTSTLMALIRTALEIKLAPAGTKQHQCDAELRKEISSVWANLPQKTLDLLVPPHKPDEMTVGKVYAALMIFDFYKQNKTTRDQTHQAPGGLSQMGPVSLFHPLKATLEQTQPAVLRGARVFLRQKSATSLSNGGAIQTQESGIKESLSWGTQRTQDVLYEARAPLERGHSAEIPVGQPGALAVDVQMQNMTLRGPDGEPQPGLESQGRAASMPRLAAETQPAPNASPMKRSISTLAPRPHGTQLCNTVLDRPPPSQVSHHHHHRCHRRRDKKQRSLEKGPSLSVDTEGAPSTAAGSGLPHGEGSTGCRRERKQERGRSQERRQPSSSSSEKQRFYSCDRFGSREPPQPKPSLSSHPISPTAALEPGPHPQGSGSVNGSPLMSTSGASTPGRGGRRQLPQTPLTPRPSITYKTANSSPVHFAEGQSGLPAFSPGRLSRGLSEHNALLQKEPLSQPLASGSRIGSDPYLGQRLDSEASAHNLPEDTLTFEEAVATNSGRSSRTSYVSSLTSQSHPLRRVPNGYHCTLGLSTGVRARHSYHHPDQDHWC
Sequence of Androgen receptor (Rattus norvegicus) (P15207 whole entry S389L): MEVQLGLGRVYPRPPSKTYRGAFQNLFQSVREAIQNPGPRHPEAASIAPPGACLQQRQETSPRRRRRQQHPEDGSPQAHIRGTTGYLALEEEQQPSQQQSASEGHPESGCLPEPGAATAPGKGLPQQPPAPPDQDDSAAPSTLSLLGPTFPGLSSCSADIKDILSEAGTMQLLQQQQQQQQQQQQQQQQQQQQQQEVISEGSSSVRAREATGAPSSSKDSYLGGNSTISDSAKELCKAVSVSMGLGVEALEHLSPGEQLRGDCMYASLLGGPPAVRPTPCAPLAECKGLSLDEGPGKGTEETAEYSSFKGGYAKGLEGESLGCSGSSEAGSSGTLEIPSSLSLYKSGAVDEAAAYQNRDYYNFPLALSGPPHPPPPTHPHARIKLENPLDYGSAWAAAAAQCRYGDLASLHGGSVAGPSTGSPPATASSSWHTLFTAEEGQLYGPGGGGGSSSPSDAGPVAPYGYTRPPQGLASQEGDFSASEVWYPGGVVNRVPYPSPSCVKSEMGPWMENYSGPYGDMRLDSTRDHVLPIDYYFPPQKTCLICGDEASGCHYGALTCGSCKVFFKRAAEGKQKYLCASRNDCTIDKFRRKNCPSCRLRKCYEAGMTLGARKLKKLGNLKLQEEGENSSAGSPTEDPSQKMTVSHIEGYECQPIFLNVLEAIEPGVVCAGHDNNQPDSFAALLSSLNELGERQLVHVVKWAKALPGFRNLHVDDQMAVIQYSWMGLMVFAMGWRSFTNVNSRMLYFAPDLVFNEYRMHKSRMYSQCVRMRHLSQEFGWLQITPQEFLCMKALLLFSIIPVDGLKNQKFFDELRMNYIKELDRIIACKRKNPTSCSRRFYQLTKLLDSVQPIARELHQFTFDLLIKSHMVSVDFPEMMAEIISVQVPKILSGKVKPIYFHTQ
Sequence of Beta-2 adrenergic receptor (Rattus norvegicus) (P10608 whole entry, looked up): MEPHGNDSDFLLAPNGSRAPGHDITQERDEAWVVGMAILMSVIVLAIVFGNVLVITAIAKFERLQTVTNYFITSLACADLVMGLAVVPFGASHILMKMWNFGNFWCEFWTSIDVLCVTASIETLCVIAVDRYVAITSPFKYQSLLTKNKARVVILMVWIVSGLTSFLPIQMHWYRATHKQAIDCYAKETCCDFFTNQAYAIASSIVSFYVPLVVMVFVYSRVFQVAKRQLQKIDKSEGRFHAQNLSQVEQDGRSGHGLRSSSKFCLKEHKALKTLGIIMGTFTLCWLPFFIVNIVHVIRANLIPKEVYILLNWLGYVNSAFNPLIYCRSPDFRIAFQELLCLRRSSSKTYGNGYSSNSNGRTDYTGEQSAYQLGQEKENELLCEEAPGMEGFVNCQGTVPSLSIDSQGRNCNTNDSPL
Sequence of Somatostatin receptor type 5 (Mus musculus) (O08858 whole entry): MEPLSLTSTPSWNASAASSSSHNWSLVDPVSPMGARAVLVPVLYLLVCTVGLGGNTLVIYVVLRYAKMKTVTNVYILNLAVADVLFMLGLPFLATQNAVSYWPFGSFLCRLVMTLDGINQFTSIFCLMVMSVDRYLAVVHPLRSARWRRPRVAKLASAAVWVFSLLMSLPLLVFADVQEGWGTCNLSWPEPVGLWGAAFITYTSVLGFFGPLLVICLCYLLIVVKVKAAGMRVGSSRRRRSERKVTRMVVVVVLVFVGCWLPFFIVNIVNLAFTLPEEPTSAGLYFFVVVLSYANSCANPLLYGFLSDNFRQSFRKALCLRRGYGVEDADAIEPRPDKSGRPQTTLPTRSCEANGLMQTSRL
Sequence of Beta-1 adrenergic receptor (Oryctolagus cuniculus) (A0A4Y6F0G0 as listed by the source): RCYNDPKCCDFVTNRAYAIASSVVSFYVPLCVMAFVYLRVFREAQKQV

residual activity [2]: 89%
residual activity [3]: 77%
residual activity [4]: 84%
residual activity [5]: 94%
residual activity [6]: 85%
residual activity [7]: 103%
residual activity [8]: 107%
residual activity [9]: 91%
residual activity [10]: 77%
IC50 [11]: > 10 µM (not active)
residual activity [12]: 100%
residual activity [13]: 89%
residual activity [15]: 30%
residual activity [16]: 66%
residual activity (Rattus norvegicus): 106%
residual activity [17]: 108%
residual activity [18]: 86%
residual activity [19]: 98%
residual activity [20]: 62%
residual activity [21]: 115%
residual activity [22]: 97%
residual activity [23]: 90%
residual activity [24]: 88%
residual activity [25]: 112%
residual activity [26]: 110%
IC50 [27]: > 10 µM (not active)
residual activity [28]: 103%
residual activity [29]: 97%
residual activity [30]: 91%
residual activity [31]: 91%
residual activity [32]: 98%
residual activity [33]: 89%
residual activity [34]: 92%
residual activity [35]: 114%
residual activity [36]: 75%
residual activity [37]: 106%
residual activity [38]: 82%
residual activity [39]: 114%
Structure (SMILES): N=C(N)NCCC[C@@H](NC(=O)C(c1ccccc1)c1ccccc1)C(=O)NCc1ccc(CNC(N)=O)cc1
residual activity [1]: 102%
residual activity [14]: 60%
residual activity [40]: 81%
